The values below come from US20220387608A1, “ADRENOMEDULLIN-ANALOGUES FOR LONG-TERM STABILIZATION AND THEIR USE” (Bayer Aktiengesellschaft, priority 2019, published 2022).

SMILES strings stand for the structures.

The nature of the data set: Stability determination of TAMRA-labelled adrenomedullin analogues in human blood plasma. The class given is in vitro ADME. The note with it: 37° C., 10^-5 M, slow-decay phase half-life, read-out: t1/2 (slow) (converted). How it is done:
The stability of the peptides was investigated using fluorescently labeled analogues, which were prepared as described above.
The TAMRA-labeled analogues were dissolved in 1.5 m1 of human blood plasma to a concentration of 10^−5 M and incubated at 37° C. under constant shaking. Samples of 150 μl were taken at different time points and precipitated with 300 μl Ethanol/ACN (1:1) for at least 1 h at −20° C. After centrifugation for 30 s at 12000 rpm, the supernatant was collected and incubated at −20° C. for at least 3 h. Subsequently, it was transferred into Costar® Spin-X® Centrifuge Tube Filters (0.22 μm) and centrifuged for 1 h at 12000 rpm. The samples were analyzed by RP-HPLC using a VariTide RPC column (Agilent Technologies, 250 mm×4.6 mm, […], 200 Å) with linear gradients of 0.1% TFA in water and 0.08% TFA in ACN; fluorescence measurement (λex=525 nm; λem=572 nm) was used for the detection of the analogues and their N-terminal fragments. The percentage of intact peptide was determined by peak integration. The values of peaks containing additional cleavage fragments were corrected by comparing intensities of cleavage fragments and intact peptide using MALDI-MS analysis (UltraflexIII, Bruker). The stability of the peptides was calculated with GraphPad Prism 5 (GraphPad Software) using a two phase exponential decay function for the determination of slow-decay phase half-lives (ln(2)/Kslow; Kslow: rate constant of slow part of exponential decay).

For `CC[C@H](C)[C@H](NC(=O)[C@H](CCC(N)=O)NC(=O)[C@H](Cc1c[nH]cn1)NC(=O)[C@H](C)NC(=O)[C@H](CC(C)C)NC(=O)[C@H](CCCCN)NC(=O)[C@H](CCC(N)=O)NC(=O)[C@@H](NC(=O)[C@@H](NC(=O)[C@@H]1CSSC[C@H](NC(=O)CNC(=O)CNC(=O)c2ccc3c(c2)C2(OC3=O)c3ccc(N(C)C)cc3Oc3cc(N(C)C)ccc32)C(=O)N[C@@H](CCCNC(=N)N)C(=O)N[C@@H](Cc2ccccc2)C(=O)NCC(=O)N[C@@H]([C@@H](C)O)C(=O)N1)[C@@H](C)O)C(C)C)C(=O)N[C@@H](Cc1ccc(O)cc1)C(=O)N[C@@H](CCC(N)=O)C(=O)N[C@@H](Cc1ccccc1)C(=O)N[C@H](C(=O)N[C@@H](CC(=O)O)C(=O)N[C@@H](CCCCN)C(=O)N[C@@H](CC(=O)O)C(=O)N[C@@H](CCCCN)C(=O)N[C@@H](CC(=O)O)C(=O)N[C@@H](CC(N)=O)C(=O)N[C@H](C(=O)N[C@@H](C)C(=O)N1CCC[C@H]1C(=O)N[C@@H](CCCNC(=N)N)C(=O)N[C@@H](CO)C(=O)N[C@@H](CCCCN)C(=O)N[C@H](C(=O)N[C@@H](CO)C(=O)N1CCC[C@H]1C(=O)N[C@@H](CCC(N)=O)C(=O)NCC(=O)N[C@@H](Cc1ccc(O)cc1)C(N)=O)[C@@H](C)CC)C(C)C)[C@@H](C)O` [TAM-control, reference compound], the half-life is 720 min.
